Patent US4089961A, “Antipsychotically useful quinolizidylidene derivatives of xanthenes, thioxanthenes and dibenzoxepins” (priority 1976, dated 1978)
Like-named read-outs stand apart in the source and are kept apart here.

Legend:
[1] = tested on: striatal dopamine receptors; assay: antagonism of amphetamine-induced rotation in rats with unilateral 6-hydroxydopamine lesions of the substantia nigra; format: in vivo, rat; details: for ED50 for antagonism of amphetamine-induced rotation: rat; for ED50: Rattus norvegicus, ip, read-out: Antagonism of Amphetamine-induced Rotation Rats ED50
Excerpt: (§1) To assess the potency of drugs in blocking striatal dopamine receptors a procedure was used which was developed by Ungerstedt [Ungerstedt and Arbuthnott, Brain Res. 24 485 (1970); Ungerstedt, Acta physiol. scand., Suppl. 367, 49 (1971)] using rats with unilateral lesions of the substantia nigra induced by injection of 6-hydroxydopamine. This treatment causes degeneration of the nigrostriatal dopaminergic pathway accompanied by a marked decrease in the dopamine content of the neostriatum on the side of the lesion. Animals with this lesion develop postural and motor asymmetries which are altered by drugs which effect dopaminergic activity. Amphetamine, which releases dopamine and norepinephrine from catecholaminergic neurons, causes these rats to rotate unidirectionally toward the side of the lesion. Since there is a much larger amount of dopamine to be released by amphetamine from the intact nigrostriatal neurons on the non-lesioned side than from those remaining on the lesioned side, the rotational behavior is apparently due to a preponderance of activation of striatal dopamine receptors on the intact side. The ability of a drug to antagonize the rotational behavior is therefore a measure of its ability to block striatal dopamine receptors and is indicative of its potential to produce EPS.
(§2) To predict the potential ability of a drug to cause EPS, the ratio of its ED50 (i.p.) for antagonism of amphetamine-induced rotation to its ED50 (i.p.) for blockage of shock avoidance acquisition in the rat, a procedure for assessing antipsychotic activity, (R/A ratio) is calculated.

[2] = tested on: shock avoidance acquisition; assay: blockade of shock avoidance acquisition in the rat (procedure for assessing antipsychotic activity); format: in vivo; details: i.p.
Description: as §2

[3] = tested on: striatal dopamine receptors; details: rat, in vivo, ip
Excerpt: There is evidence that antipsychotic drugs cause EPS by interfering with neurotransmission in a nigrostriatal dopaminergic pathway. It is throught that they block dopamine receptors in the neostriatum. Therefore, the ability of a drug to block striatal dopamine receptors is a measure of its EPS liability.
as §1, §2

[4] = clinically established antipsychotics; cited from earlier work

Clc1ccc2c(c1)C(=C1CCC3CCCCN3C1)c1ccccc1S2 (stereo not drawn) [3-(2-chlorothioxanthen-9-ylidene)quinolizidine, isomer havin]
ED50 for antagonism of amphetamine-induced rotation ([1]; i.p.): 8.2 mg/kg | ED50 for blockade of shock avoidance acquisition [2]: 1.7 mg/kg | R/A ratio [3]: 4.8

Clc1ccc2c(c1)C(=C1CCC3CCCCN3C1)c1ccccc1S2 (stereo not drawn) [3-(2-chlorothioxanthen-9-ylidene)quinolizidine, other isomer]
ED50 for antagonism of amphetamine-induced rotation ([1]; i.p.): 2.3 mg/kg | ED50 for blockade of shock avoidance acquisition [2]: 0.7 mg/kg | R/A ratio [3]: 3.3

CN(C)CCCN1c2ccccc2Sc2ccc(Cl)cc21 [Chlorpromazine]
ED50 [1]: 2 mg/kg

CN1CCN(C2=Nc3cc(Cl)ccc3Nc3ccccc32)CC1 [Clozapine, clozapine]
ED50 ([1]; rats, i.p., Table I, R): 25.4 mg/kg | propensity to cause EPS relative to chlorpromazine [4]: known to produce EPS to a lesser extent than chlorpromazine

O=C(CCCN1CCC(O)(c2ccc(Cl)cc2)CC1)c1ccc(F)cc1 [Haloperidol, haloperidol]
ED50 ([1]; rats, i.p., Table I, R): 0.05 mg/kg | propensity to cause EPS relative to chlorpromazine [4]: considerably greater propensity to cause EPS than chlorpromazine | R/A ratio [3]: 0.3-0.5

O=c1[nH]c2ccccc2n1C1CCN(CCCC(c2ccc(F)cc2)c2ccc(F)cc2)CC1 [Pimozide, pimozide]
ED50 [1]: 0.08 mg/kg | propensity to cause EPS relative to chlorpromazine [4]: considerably greater propensity to cause EPS than chlorpromazine

CSc1ccc2c(c1)N(CCC1CCCCN1C)c1ccccc1S2 (centres unmarked) [Thioridazine, thioridazine]
ED50 ([1]; rats, i.p., Table I, R): 13.7 mg/kg | propensity to cause EPS relative to chlorpromazine [4]: known to produce EPS to a lesser extent than chlorpromazine | R/A ratio [3]: 2.7

CN1CCN(CCCN2c3ccccc3Sc3ccc(C(F)(F)F)cc32)CC1 [Trifluoperazine, trifluoperazine]
ED50 ([1]; rats, i.p., Table I, R): 0.12 mg/kg | propensity to cause EPS relative to chlorpromazine [4]: considerably greater propensity to cause EPS than chlorpromazine | R/A ratio [3]: 0.3-0.5
